{"source": "ChEMBL document CHEMBL4800722", "about": "“Data for DCP probe BI 605906” (2021)", "key": {"[1]": {"target": "T1, Serine/threonine-protein kinase Chk1 (Homo sapiens) (UniProt O14757)", "T1 sequence (whole entry)": "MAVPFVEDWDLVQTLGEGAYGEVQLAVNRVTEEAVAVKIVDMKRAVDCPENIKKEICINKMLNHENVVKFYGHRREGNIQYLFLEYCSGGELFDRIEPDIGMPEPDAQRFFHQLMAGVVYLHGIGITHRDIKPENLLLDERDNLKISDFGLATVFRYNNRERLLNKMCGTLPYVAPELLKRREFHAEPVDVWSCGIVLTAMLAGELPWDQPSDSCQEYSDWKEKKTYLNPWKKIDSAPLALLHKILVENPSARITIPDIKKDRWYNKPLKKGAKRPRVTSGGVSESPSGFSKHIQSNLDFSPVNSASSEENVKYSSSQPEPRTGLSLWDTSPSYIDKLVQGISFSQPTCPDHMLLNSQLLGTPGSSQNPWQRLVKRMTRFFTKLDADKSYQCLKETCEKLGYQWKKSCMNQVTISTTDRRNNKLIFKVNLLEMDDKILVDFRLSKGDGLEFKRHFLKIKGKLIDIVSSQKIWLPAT"}, "[2]": {"target": "Calcium/calmodulin-dependent protein kinase type 1D (Homo sapiens) (UniProt Q8IU85)", "conditions": "Compound concentration 1.0 uM"}, "[3]": {"target": "Rho-associated protein kinase 2 (Homo sapiens) (UniProt O75116)", "conditions": "Compound concentration 1.0 uM"}, "[4]": {"target": "Serine/threonine-protein kinase Sgk1 (Homo sapiens) (UniProt O00141)", "sequence (O00141 whole entry)": "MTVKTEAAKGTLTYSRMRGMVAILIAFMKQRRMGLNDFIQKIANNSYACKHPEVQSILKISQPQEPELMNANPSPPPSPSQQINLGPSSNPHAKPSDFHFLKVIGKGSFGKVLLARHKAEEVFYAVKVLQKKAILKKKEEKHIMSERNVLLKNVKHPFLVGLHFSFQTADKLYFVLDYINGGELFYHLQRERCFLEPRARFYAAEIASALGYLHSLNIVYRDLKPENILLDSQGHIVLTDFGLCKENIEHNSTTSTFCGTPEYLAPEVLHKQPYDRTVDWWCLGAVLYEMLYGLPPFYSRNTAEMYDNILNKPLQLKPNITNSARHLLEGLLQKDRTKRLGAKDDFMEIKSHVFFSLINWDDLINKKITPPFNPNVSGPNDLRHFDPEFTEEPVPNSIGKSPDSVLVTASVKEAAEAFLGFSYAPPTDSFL", "conditions": "Compound concentration 10.0 uM"}, "[5]": {"target": "Ribosomal protein S6 kinase alpha-5 (Homo sapiens) (UniProt O75582)", "experiment": "MSK1 DUNDEE kinase screen (BI)", "conditions": "Compound concentration 10.0 uM"}, "[6]": {"target": "AMPK alpha2/beta1/gamma1 (Homo sapiens) (UniProt P54646+P54619+Q9Y478)", "experiment": "AMPK A2B1G1 Invitrogen Lab (UK) kinase screen (BI)", "format": "protein-complex assay", "conditions": "Compound concentration 1.0 uM"}, "[7]": {"target": "Cyclin-dependent kinase 7 (Homo sapiens) (UniProt P50613)", "conditions": "Compound concentration 1.0 uM"}, "[8]": {"target": "Dual specificity tyrosine-phosphorylation-regulated kinase 3 (Homo sapiens) (UniProt O43781)", "conditions": "Compound concentration 1.0 uM"}, "[9]": {"target": "Serine/threonine-protein kinase Nek6 (Homo sapiens) (UniProt Q9HC98)", "conditions": "Compound concentration 1.0 uM"}, "[10]": {"target": "Beta-adrenergic receptor kinase 1 (Homo sapiens) (UniProt P25098)", "conditions": "Compound concentration 1.0 uM"}, "[11]": {"target": "Cyclin-dependent kinase 16 (Homo sapiens) (UniProt Q00536)", "conditions": "Compound concentration 1.0 uM"}, "[12]": {"target": "Tyrosine-protein kinase Fer (Homo sapiens) (UniProt P16591)", "conditions": "Compound concentration 1.0 uM"}, "[13]": {"target": "Ephrin type-A receptor 8 (Homo sapiens) (UniProt P29322)", "experiment": "EPHA8 Invitrogen Lab (UK) kinase screen (BI)", "conditions": "Compound concentration 1.0 uM"}, "[14]": {"target": "AMPK alpha2/beta2/gamma1 (Homo sapiens) (UniProt P54646+O43741+P54619)", "sequence (O43741 whole entry, looked up)": "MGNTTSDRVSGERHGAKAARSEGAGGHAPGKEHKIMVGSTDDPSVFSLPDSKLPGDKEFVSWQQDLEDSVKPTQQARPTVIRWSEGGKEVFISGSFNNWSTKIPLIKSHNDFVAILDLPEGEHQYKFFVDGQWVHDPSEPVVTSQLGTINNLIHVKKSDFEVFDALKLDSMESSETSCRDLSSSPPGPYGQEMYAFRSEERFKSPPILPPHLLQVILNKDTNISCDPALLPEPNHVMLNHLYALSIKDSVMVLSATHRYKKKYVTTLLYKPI", "sequence (P54619 whole entry, looked up)": "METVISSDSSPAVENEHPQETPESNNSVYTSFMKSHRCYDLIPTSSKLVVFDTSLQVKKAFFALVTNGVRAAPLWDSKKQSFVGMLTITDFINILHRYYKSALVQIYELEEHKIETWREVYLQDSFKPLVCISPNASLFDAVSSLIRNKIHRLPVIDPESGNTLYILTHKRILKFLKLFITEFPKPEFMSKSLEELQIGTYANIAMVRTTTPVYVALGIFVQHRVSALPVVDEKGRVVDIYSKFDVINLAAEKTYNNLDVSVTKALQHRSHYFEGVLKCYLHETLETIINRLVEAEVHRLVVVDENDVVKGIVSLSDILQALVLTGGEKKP", "sequence (P54646 whole entry, looked up)": "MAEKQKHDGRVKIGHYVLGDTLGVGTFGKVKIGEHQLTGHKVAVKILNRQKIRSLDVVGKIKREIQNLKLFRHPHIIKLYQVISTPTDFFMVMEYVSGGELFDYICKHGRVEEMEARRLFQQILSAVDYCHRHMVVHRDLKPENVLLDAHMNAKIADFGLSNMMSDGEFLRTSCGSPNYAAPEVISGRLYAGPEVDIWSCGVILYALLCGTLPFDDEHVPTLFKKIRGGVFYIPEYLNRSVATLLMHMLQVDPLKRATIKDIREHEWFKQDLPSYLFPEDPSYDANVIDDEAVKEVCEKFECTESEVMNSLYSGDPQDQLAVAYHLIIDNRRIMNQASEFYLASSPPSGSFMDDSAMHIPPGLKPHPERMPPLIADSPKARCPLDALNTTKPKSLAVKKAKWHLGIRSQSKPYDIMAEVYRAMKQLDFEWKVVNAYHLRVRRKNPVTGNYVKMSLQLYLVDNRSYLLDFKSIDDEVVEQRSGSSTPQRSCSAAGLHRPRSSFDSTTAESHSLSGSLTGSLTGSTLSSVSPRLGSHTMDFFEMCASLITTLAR", "experiment": "AMPK (A2/B2/G1) Invitrogen Lab (UK) kinase screen (BI)", "format": "protein-complex assay", "conditions": "Compound concentration 1.0 uM"}, "[15]": {"target": "Angiotensin-converting enzyme (Oryctolagus cuniculus) (UniProt P12822)", "conditions": "Compound concentration 10.0 uM"}, "[16]": {"target": "Adrenergic receptor alpha-1 (Rattus norvegicus) (UniProt P15823+P23944+P43140)"}, "[17]": {"target": "Myosin-IIIb (Homo sapiens) (UniProt Q8WXR4)", "sequence (Q8WXR4 whole entry)": "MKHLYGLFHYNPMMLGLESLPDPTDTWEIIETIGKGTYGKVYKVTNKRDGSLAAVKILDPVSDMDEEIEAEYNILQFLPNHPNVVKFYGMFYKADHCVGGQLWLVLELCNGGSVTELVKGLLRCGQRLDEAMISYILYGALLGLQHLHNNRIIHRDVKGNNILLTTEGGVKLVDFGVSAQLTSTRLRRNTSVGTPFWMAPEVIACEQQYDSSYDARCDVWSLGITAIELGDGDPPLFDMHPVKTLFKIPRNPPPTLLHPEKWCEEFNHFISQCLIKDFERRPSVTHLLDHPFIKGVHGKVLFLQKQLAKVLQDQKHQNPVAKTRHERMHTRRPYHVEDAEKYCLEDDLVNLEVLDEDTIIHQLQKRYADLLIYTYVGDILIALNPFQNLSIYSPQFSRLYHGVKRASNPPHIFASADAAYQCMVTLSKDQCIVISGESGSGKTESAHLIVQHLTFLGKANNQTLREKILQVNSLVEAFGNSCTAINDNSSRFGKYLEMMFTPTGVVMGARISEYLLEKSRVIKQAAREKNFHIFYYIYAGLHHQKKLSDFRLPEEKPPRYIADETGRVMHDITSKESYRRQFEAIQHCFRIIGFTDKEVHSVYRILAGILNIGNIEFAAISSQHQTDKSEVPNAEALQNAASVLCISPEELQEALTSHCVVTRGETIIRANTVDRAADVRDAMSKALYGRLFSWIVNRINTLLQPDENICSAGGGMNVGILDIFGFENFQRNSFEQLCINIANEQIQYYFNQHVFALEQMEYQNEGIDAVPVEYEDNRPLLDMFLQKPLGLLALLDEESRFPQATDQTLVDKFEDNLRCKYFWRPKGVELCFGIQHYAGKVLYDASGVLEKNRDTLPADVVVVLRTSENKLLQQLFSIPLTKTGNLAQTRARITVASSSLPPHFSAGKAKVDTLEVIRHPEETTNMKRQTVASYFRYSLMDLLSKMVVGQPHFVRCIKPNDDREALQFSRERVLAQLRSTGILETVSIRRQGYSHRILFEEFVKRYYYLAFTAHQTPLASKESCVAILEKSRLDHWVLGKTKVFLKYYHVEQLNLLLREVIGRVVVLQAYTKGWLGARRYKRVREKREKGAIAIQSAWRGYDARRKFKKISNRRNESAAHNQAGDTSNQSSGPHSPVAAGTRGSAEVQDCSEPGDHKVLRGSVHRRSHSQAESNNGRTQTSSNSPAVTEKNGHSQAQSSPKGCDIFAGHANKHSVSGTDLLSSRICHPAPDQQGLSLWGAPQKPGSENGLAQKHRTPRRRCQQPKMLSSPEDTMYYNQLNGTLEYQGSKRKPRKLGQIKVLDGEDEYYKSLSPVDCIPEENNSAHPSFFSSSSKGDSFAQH", "conditions": "Compound concentration 1.0 uM"}, "[18]": {"target": "Muscarinic acetylcholine receptor (Rattus norvegicus) (UniProt P08482+P08483+P08485+P08911+P10980)", "conditions": "Compound concentration 10.0 uM"}, "[19]": {"target": "Serine/threonine-protein kinase/endoribonuclease IRE2 (Homo sapiens) (UniProt Q76MJ5)", "experiment": "ERN2 Invitrogen Lab (UK) kinase screen (BI)", "conditions": "Compound concentration 1.0 uM"}, "[20]": {"target": "Serine/threonine-protein kinase PLK3 (Homo sapiens) (UniProt Q9H4B4)", "conditions": "Compound concentration 1.0 uM"}, "[21]": {"target": "Polyunsaturated fatty acid lipoxygenase ALOX15 (Oryctolagus cuniculus) (UniProt P12530)", "experiment": "15LO Eurofins SafetyScreen44 (BI)", "conditions": "Compound concentration 10.0 uM"}, "[22]": {"target": "Mitogen-activated protein kinase kinase kinase 21 (Homo sapiens) (UniProt Q5TCX8)", "conditions": "Compound concentration 1.0 uM"}, "[23]": {"target": "Leucine-rich repeat serine/threonine-protein kinase 2 (Homo sapiens) (UniProt Q5S007)", "experiment": "LRRK2 Invitrogen Lab (UK) kinase screen (BI)", "conditions": "Compound concentration 1.0 uM"}, "[24]": {"target": "3-hydroxy-3-methylglutaryl-coenzyme A reductase (Rattus norvegicus) (UniProt P51639)", "experiment": "HMGCOARED Eurofins SafetyScreen44 (BI)", "conditions": "Compound concentration 10.0 uM"}, "[25]": {"target": "Rhodopsin kinase GRK1 (Homo sapiens) (UniProt Q15835)", "conditions": "Compound concentration 1.0 uM"}, "[26]": {"target": "5'-AMP-activated protein kinase catalytic subunit alpha-2/beta-1/gamma-2 (Homo sapiens) (UniProt P54646+Q9UGJ0+Q9Y478)", "experiment": "AMPK (A2/B1/G2) Invitrogen Lab (UK) kinase screen (BI)", "format": "protein-complex assay", "conditions": "Compound concentration 1.0 uM"}, "[27]": {"target": "Receptor-type tyrosine-protein kinase FLT3 (Homo sapiens) (UniProt P36888)", "sequence (P36888 whole entry)": "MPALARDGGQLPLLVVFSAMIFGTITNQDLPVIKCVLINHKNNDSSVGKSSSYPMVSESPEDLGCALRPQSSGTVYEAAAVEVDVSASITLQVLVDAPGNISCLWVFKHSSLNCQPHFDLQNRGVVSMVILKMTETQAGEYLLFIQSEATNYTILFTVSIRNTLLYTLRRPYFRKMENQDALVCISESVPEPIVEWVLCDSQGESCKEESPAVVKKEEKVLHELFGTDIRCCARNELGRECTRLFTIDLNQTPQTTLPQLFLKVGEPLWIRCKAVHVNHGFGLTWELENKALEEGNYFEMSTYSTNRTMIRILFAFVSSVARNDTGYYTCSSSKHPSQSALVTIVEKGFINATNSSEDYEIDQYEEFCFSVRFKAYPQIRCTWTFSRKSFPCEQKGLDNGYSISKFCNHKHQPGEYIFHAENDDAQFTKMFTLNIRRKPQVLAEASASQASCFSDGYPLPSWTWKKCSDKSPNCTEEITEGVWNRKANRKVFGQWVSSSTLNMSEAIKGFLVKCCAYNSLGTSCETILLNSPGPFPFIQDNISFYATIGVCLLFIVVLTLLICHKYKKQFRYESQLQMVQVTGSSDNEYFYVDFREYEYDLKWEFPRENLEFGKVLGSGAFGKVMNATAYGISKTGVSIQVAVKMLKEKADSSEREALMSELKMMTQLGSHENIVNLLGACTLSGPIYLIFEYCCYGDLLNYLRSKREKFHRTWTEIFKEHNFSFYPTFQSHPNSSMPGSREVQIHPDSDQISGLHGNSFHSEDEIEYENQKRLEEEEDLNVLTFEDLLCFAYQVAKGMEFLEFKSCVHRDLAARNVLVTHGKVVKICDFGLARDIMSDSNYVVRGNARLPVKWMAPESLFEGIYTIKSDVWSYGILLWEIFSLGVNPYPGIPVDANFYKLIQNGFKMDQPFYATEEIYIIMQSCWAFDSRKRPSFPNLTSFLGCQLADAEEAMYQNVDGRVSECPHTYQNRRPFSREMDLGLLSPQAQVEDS"}, "[28]": {"target": "5-hydroxytryptamine receptor 2A (Homo sapiens) (UniProt P28223)", "conditions": "Compound concentration 10.0 uM"}, "[29]": {"target": "Casein kinase I isoform gamma-1 (Homo sapiens) (UniProt Q9HCP0)", "experiment": "CSNK1G1 Invitrogen Lab (UK) kinase screen (BI)", "conditions": "Compound concentration 1.0 uM"}, "[30]": {"target": "Tyrosine-protein kinase Lck (Homo sapiens) (UniProt P06239)", "sequence (P06239 2-509 limits assumed)": "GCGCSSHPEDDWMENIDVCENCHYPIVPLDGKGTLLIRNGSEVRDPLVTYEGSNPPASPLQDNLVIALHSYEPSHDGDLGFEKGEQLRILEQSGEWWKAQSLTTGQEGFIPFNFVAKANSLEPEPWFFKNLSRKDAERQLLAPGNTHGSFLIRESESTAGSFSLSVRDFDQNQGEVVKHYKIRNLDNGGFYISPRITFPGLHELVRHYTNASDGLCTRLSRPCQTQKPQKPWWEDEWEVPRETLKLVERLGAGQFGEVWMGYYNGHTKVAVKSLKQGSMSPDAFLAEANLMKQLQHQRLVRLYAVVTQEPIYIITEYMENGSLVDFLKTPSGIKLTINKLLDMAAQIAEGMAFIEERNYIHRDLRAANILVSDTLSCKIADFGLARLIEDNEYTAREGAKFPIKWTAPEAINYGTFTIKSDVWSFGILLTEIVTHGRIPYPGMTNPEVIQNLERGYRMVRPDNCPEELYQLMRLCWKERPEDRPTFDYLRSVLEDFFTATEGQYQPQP", "experiment": "LCK Invitrogen Lab (UK) kinase screen (BI)"}, "[31]": {"target": "Beta-3 adrenergic receptor (Homo sapiens) (UniProt P13945)", "conditions": "Compound concentration 10.0 uM"}, "[32]": {"target": "Serotonin 1 (5-HT1) receptor (Rattus norvegicus) (UniProt P28564+P30940+P19327+P28565)", "experiment": "5HT1/R Eurofins SafetyScreen44 (BI)", "format": "protein assay"}, "[33]": {"target": "Dual specificity protein kinase CLK1 (Homo sapiens) (UniProt P49759)", "sequence (P49759 whole entry, looked up)": "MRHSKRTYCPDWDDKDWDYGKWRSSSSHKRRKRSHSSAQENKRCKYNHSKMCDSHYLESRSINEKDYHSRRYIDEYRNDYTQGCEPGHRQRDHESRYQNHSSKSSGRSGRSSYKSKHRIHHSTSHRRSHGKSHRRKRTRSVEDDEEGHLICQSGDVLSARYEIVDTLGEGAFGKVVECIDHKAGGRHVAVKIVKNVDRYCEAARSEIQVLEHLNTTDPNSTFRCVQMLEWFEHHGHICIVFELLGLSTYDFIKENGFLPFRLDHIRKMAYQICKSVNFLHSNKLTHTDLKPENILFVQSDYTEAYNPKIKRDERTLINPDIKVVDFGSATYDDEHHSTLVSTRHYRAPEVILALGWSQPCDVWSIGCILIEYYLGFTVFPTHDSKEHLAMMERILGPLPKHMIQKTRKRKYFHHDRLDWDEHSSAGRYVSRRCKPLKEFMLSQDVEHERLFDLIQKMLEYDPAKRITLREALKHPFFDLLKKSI", "conditions": "Compound concentration 1.0 uM"}, "[34]": {"species_on_record": "Rattus norvegicus", "conditions": "Compound concentration 10.0 uM"}, "[35]": {"target": "Serine/threonine-protein kinase N2 (Homo sapiens) (UniProt Q16513)", "experiment": "PKN2 Invitrogen Lab (UK) kinase screen (BI)", "conditions": "Compound concentration 1.0 uM"}, "[36]": {"target": "Serine/threonine-protein kinase PLK2 (Homo sapiens) (UniProt Q9NYY3)", "conditions": "Compound concentration 1.0 uM"}, "[37]": {"conditions": "Compound concentration 100.0 uM"}}}
{"molecule": "CCC(F)(F)c1cc(N2CCC(S(C)(=O)=O)CC2)nc2sc(C(N)=O)c(N)c12", "note": "[BI-605906]", "values": [{"measurement": "residual activity", "setting": "[1]; Compound concentration 1.0 uM", "value": 95, "unit": "%"}, {"measurement": "residual activity", "setting": "[1]; Compound concentration 10.0 uM", "value": 89, "unit": "%"}, {"measurement": "residual activity", "setting": "[2]", "value": 98, "unit": "%"}, {"measurement": "residual activity", "setting": "[3]", "value": 96, "unit": "%"}, {"measurement": "residual activity", "setting": "[4]", "value": 101, "unit": "%"}, {"measurement": "residual activity", "setting": "[5]", "value": 86.6, "unit": "%"}, {"measurement": "residual activity", "setting": "[6]", "value": 88, "unit": "%"}, {"measurement": "residual activity", "setting": "[7]", "value": 99, "unit": "%"}, {"measurement": "residual activity", "setting": "[8]", "value": 92, "unit": "%"}, {"measurement": "residual activity", "setting": "[9]", "value": 95, "unit": "%"}, {"measurement": "residual activity", "setting": "[10]", "value": 95, "unit": "%"}, {"measurement": "residual activity", "setting": "[11]", "value": 87, "unit": "%"}, {"measurement": "residual activity", "setting": "[12]", "value": 95, "unit": "%"}, {"measurement": "residual activity", "setting": "[13]", "value": 85, "unit": "%"}, {"measurement": "residual activity", "setting": "[14]", "value": 88, "unit": "%"}, {"measurement": "residual activity", "setting": "[15]", "value": 98, "unit": "%"}, {"measurement": "residual activity", "setting": "[16]; Compound concentration 10.0 uM", "value": 109, "unit": "%"}, {"measurement": "residual activity", "setting": "[16]; [37]", "value": 93, "unit": "%"}, {"measurement": "residual activity", "setting": "[17]", "value": 90, "unit": "%"}, {"measurement": "residual activity", "setting": "[18]", "value": 99, "unit": "%"}, {"measurement": "residual activity", "setting": "[19]", "value": 102, "unit": "%"}, {"measurement": "residual activity", "setting": "[20]", "value": 93, "unit": "%"}, {"measurement": "residual activity", "setting": "[21]", "value": 79, "unit": "%"}, {"measurement": "residual activity", "setting": "[22]", "value": 97, "unit": "%"}, {"measurement": "residual activity", "setting": "[23]", "value": 62, "unit": "%"}, {"measurement": "residual activity", "setting": "[24]", "value": 85, "unit": "%"}, {"measurement": "residual activity", "setting": "[25]", "value": 87, "unit": "%"}, {"measurement": "residual activity", "setting": "[26]", "value": 88, "unit": "%"}, {"measurement": "residual activity", "setting": "[27]; Compound concentration 1.0 uM", "value": 71, "unit": "%"}, {"measurement": "residual activity", "setting": "[27]; Compound concentration 10.0 uM", "value": 38, "unit": "%"}, {"measurement": "inhibition", "setting": "[28]", "value": 6.1, "unit": "%"}, {"measurement": "residual activity", "setting": "[29]", "value": 102, "unit": "%"}, {"measurement": "residual activity", "setting": "[30]; Compound concentration 1.0 uM", "value": 68, "unit": "%"}, {"measurement": "residual activity", "setting": "[30]; Compound concentration 10.0 uM", "value": 67, "unit": "%"}, {"measurement": "inhibition", "setting": "[31]", "value": 18, "unit": "%"}, {"measurement": "residual activity", "setting": "[32]; Compound concentration 10.0 uM", "value": 119, "unit": "%"}, {"measurement": "residual activity", "setting": "[32]; [37]", "value": 107, "unit": "%"}, {"measurement": "residual activity", "setting": "[33]", "value": 92, "unit": "%"}, {"measurement": "residual activity", "setting": "[34]", "value": 97, "unit": "%"}, {"measurement": "residual activity", "setting": "[35]", "value": 86, "unit": "%"}, {"measurement": "residual activity", "setting": "[36]", "value": 96, "unit": "%"}]}
